Non-standard residues stand in square brackets, D forms with d. Residues, ends and D or L forms follow the SMILES beside them. *: point of attachment. Nle = CCCC[C@H](N)C(=O)O; Cbz = O=C(OCc1ccccc1)*
What was measured:
[1] = tested on: nerve cells in the hippocampal CA1 region; assay: Effect on ischemic disorder of the brain: bilateral common carotid artery occlusion, nerve cell counts in hippocampal CA1 region; format: in vivo; conditions: gerbil, 10 min ischemia, 100 mg/kg intraperitoneally 15 min before ischemia, immediately after reperfusion, then once daily, counted 5 days after reperfusion; for ischemia-induced decrease in the number of normal nerve cells in the hippocampal CA1 region: FIG. 1; for ischemia-induced increase in the number of apoptotic nerve cells in the hippocampal CA1 region: FIG. 2
Procedure: The bilateral common carotid arteries of gerbils (male, body weights 60-80 g) were exposed under ether anesthesia. Then, in a conscious state, the carotid arteries were occluded with aneurysm clips to arrest the blood flow for 10 minutes. Ischemia was confirmed by checking the arrest of retinal blood flow with a blood flow meter (Advance laser flow meter (ALF21N), Advance Co. Ltd.) and observation of ischemic symptoms such as seizure, circling, and ptosis. After removal of the clips, reperfusion was confirmed with the blood flow meter. Five days after reperfusion, the animal was anesthetized with ether and was perfused with saline through the left ventricle for removal of blood and further with 4% formaldehyde for fixation of the brain tissue. The tissue was embedded in paraffin and thin sections were prepared and stained with hematoxylin-eosin in the routine manner. The nerve cells in the hippocampal CA1 region were observed under a light microscope and the normal nerve cells remaining in a 1.0 mm span of the hippocampal CA1 region were counted. Separately, using Apoptosis in situ Detection Kit Wako (Wako Pure Chemical Ind., Ltd.), the apoptosis in the paraffin-embedded brain tissue specimen was detected and using the light microscope, the apoptotic nerve cells per 1.0 mm span of the hippocampal CA1 region were counted.
In the normal group, the common carotid arteries were exposed but no ischemia was introduced. As the test drug, a parenteral suspension prepared as in Example 3 was administered intraperitoneally in a dose of 100 mg Compound 1 per kg body weight 15 minutes before ischemia, immediately after reperfusion, and thereafter once daily (Compound 1 administration group). In the control group and normal group, the vehicle used in Example 3 was similarly administered. As a positive control, Cbz-Val-Phe-H [MDL; S. C. Hong et al., Stroke, 25 (3), 663-669 (1994)], 100 mg/kg body weight, was similarly administered (MDL administration group).

[2] = Toxicity study, single oral dose, 14-day observation; format: in vivo, Wister rats; conditions: rat, oral 1000 mg/kg
Procedure: Five-week-old Wister rats (male, body weights 80-105 g) were orally given a 3.3 w/v % suspension of Compound 1 in 0.5 w/v % carboxymethylcellulose in a dose of 1000 mg as Compound 1 per kg body weight. […] Body weights were recorded before dosing and once daily for 14 days after dosing. Autopsy was performed after sacrifice by exsanguination under ether anesthesia after 14 days and the organs were grossly examined. The control group received 0.5 w/v % carboxymethylcellulose.

[3] = tested on: cytopathy due to cerebral ischemia; conditions: rats, administered intravenously; cited from earlier work
[4] = tested on: neurons; conditions: administered intraperitoneally; cited from earlier work
[5] = tested on: neurons; conditions: directly administered into the animal cerebral ventricle; cited from earlier work

## CC(C)C[C@@H](C=O)NC(=O)[C@@H](NS(=O)(=O)c1ccc(F)cc1)C(C)C [Compound 1, N-(4-fluorophenylsulfonyl)-L-valyl-L-leucinal]
[1]
  ischemia-induced decrease in the number of normal nerve cells in the hippocampal CA1 region: significantly inhibited
  ischemia-induced increase in the number of apoptotic nerve cells in the hippocampal CA1 region: significantly inhibited
[2]; 14 days
  body weight gain versus control group: no difference
[2]; autopsy after 14 days
  autopsy findings versus control group: no difference
[2]; observed 14 days
  general condition and behavior: no change

## CC(C)[C@H](NC(=O)OCc1ccccc1)C(=O)N[C@H](C=O)Cc1ccccc1 [MDL, Cbz-Val-Phe-H] (Cbz-Val-Phe-aldehyde)
[1]
  ischemia-induced decrease in the number of normal nerve cells in the hippocampal CA1 region: little inhibitory effect
  ischemia-induced increase in the number of apoptotic nerve cells in the hippocampal CA1 region: little inhibitory effect
[3]
  cytopathy due to cerebral ischemia: inhibited cytopathy

## CCCC[C@@H](C=O)NC(=O)[C@H](CC(C)C)NC(=O)[C@H](CC(C)C)NC(C)=O [calpain inhibitor I] (Ac-Leu-Leu-[Nle]-aldehyde)
[4]
  protection of neurons from excitotoxic factors: protect neurons from excitotoxic factors

## CC(=O)N[C@@H](CC(C)C)C(=O)N[C@@H](CC(C)C)C(=O)N[C@H](C=O)CCCNC(=N)N [leupeptin]
[5]
  protection of neurons against damage by cerebral ischemia: protects neurons against damage

— patent US6342531B1, “Pharmaceutical composition containing a cysteine protease inhibitor for prophylaxis and therapy of brain tissue impairment” (Senju Pharmaceutical Co., Ltd., priority 1998, dated 2002)
